Measured values taken from ChEMBL document CHEMBL1201862, “PubChem BioAssay data set” (2004).
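In this assay, cells in 96-well plates receive the compound at five concentrations for 48 hours. Endpoints are linearly interpolated between the surrounding concentrations. GI50: concentration for 50% inhibition of growth.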 Activity calls are given as the source filed them. No stated cut-off is given here; in the data, active = GI50 up to about 1.1 µM and inactive = higher.

Experiments:
Assay in all cases: NCI-60 cell line screen, 48 h
[1] = test system: A549
[2] = test system: CAKI-1
[3] = test system: HCT-15
[4] = test system: HOP-62
[5] = test system: IGROV-1
[6] = test system: M14
[7] = test system: NCI-H226
[8] = test system: NCI-H460
[9] = test system: NCI-H522
[10] = test system: NCI/ADR-RES
[11] = test system: OVCAR-5
[12] = test system: RPMI-8226
[13] = test system: SF-539
[14] = test system: SK-OV-3
[15] = test system: SN12C
[16] = test system: SNB-19
[17] = test system: SNB-75
[18] = test system: T47D
[19] = test system: UACC-62
[20] = test system: UO-31

Measured: GI50

O=C(c1ccccc1)c1c(C(F)(F)F)[n+]([O-])c2cc(Cl)c(Cl)cc2[n+]1[O-]
0.535 µM: [3]
inactive: [2] 1.58 µM | [7] 3.02 µM | [8] 1.15 µM | [10] 2.21 µM | [11] 1.69 µM | [13] 1.5 µM | [14] 4.8 µM | [16] 1.56 µM | [17] 1.31 µM | [18] 1.45 µM | [19] 3.97 µM | [20] 1.47 µM
active: [1] 0.736 µM | [4] 0.357 µM | [5] 0.473 µM | [6] 0.968 µM | [9] 0.557 µM | [12] 0.373 µM | [15] 0.658 µM

Oc1nc2cc(Cl)ccc2nc1/C(=N\Nc1ccccc1)C(O)c1ccc2c(c1)OCO2 (stereo not given)
> 100 µM: [3]
inactive: [1] > 100 µM | [2] > 100 µM | [4] > 100 µM | [5] > 100 µM | [6] > 100 µM | [7] > 100 µM | [8] > 100 µM | [9] > 100 µM | [10] > 100 µM | [11] > 100 µM | [12] > 100 µM | [13] > 100 µM | [14] > 100 µM | [15] > 100 µM | [16] > 100 µM | [17] > 100 µM | [18] 72.8 µM | [19] > 100 µM | [20] > 100 µM

Clc1ccccc1/C=C/c1ccnc2ccccc12
13.9 µM: [3]
inactive: [1] 16.2 µM | [2] 16.9 µM | [4] 16.9 µM | [5] 15.8 µM | [6] 17.3 µM | [7] 16.8 µM | [8] 16.2 µM | [9] 14.3 µM | [10] 15.2 µM | [11] 19.9 µM | [12] 7.8 µM | [13] 18.4 µM | [14] 18.5 µM | [15] 16.4 µM | [16] 16.8 µM | [17] 15.6 µM | [18] 13.6 µM | [19] 15.2 µM | [20] 17.3 µM

C/C(=N\NC(=S)Nc1ccc(C)cc1)c1nc2cccnc2[nH]1
inactive: [1] 2.33 µM | [2] 1.84 µM | [4] 3.17 µM | [5] 2.31 µM | [7] 1.78 µM | [8] 1.32 µM | [10] 4.04 µM | [11] 1.95 µM | [12] 3.01 µM | [13] 1.14 µM | [14] 4.3 µM | [15] 2.32 µM | [16] 3.2 µM | [17] 5.77 µM | [19] 2.81 µM
active: [9] 0.986 µM | [18] 0.406 µM | [20] 0.649 µM
2.86 µM: [3]

C(#CP(c1ccccc1)c1ccccc1)P(C#CP(c1ccccc1)c1ccccc1)c1ccccc1
inactive: [1] > 100 µM | [2] > 100 µM | [4] > 100 µM | [5] > 100 µM | [7] > 100 µM | [8] > 100 µM | [9] > 100 µM | [10] > 100 µM | [11] 1.63 µM | [12] > 100 µM | [13] > 100 µM | [14] 2.77 µM | [15] > 100 µM | [16] > 100 µM | [17] > 100 µM | [18] > 100 µM | [19] > 100 µM | [20] > 100 µM
active: [6] 0.798 µM
> 100 µM: [3]

CN(/N=C/c1ccc(OCc2cccc(COc3ccc(C=O)cc3)n2)cc1)c1cnn(-c2ccc(Cl)cc2Cl)c(=O)c1Cl
inactive: [1] > 100 µM | [2] > 100 µM | [4] 17.7 µM | [5] 62.5 µM | [6] > 100 µM | [7] > 100 µM | [8] > 100 µM | [9] > 100 µM | [10] 21.2 µM | [11] > 100 µM | [12] 53.1 µM | [13] 12.5 µM | [15] > 100 µM | [16] 50.7 µM | [17] 11.4 µM | [18] > 100 µM | [19] > 100 µM | [20] > 100 µM
> 100 µM: [3]

COC1CC(OC2C(C)OC(OC3C(C)OC(OC4C(O)CC(O[C@H]5CC[C@@]6(C)C(=CC[C@]7(O)[C@@H]6C[C@@H](OC(=O)/C=C/c6ccccc6)[C@@]6(C)[C@]7(O)CC[C@@]6(O)C(C)=O)C5)OC4C)CC3OC)CC2OC)OC(C)C1O (stereo not given in full)
> 6.25 µM: [3]
inactive: [1] > 6.25 µM | [2] > 6.25 µM | [4] > 6.25 µM | [5] > 6.25 µM | [6] > 6.25 µM | [7] > 6.25 µM | [9] > 6.25 µM | [10] > 6.25 µM | [11] > 6.25 µM | [12] > 6.25 µM | [13] > 6.25 µM | [14] > 6.25 µM | [15] > 6.25 µM | [16] > 6.25 µM | [17] > 6.25 µM | [18] > 6.25 µM | [19] > 6.25 µM | [20] 4.52 µM

O=C(O)CC1(C(=O)O)CCCCC1
> 100 µM: [3]
inactive: [1] > 100 µM | [2] > 100 µM | [4] > 100 µM | [5] > 100 µM | [6] > 100 µM | [7] > 100 µM | [8] > 100 µM | [9] > 100 µM | [10] > 100 µM | [11] > 100 µM | [12] > 100 µM | [13] > 100 µM | [14] > 100 µM | [15] > 100 µM | [16] > 100 µM | [17] > 100 µM | [18] > 100 µM | [19] > 100 µM | [20] > 100 µM

COc1ccc(OC)c2c1C(=O)C(O)=C(Cl)C2=O
inactive: [1] > 100 µM | [2] > 100 µM | [4] > 100 µM | [5] > 100 µM | [6] > 100 µM | [7] > 100 µM | [8] > 100 µM | [9] > 100 µM | [10] > 100 µM | [11] > 100 µM | [12] > 100 µM | [13] > 100 µM | [14] > 100 µM | [16] > 100 µM | [17] > 100 µM | [18] > 100 µM | [19] > 100 µM | [20] > 100 µM
> 100 µM: [3]

CSC1=NS(=O)(=O)c2cc(C(=O)NN(C)C(=O)c3cc4c(cc3Cl)SC(SC)=NS4(=O)=O)c(Cl)cc2S1
> 10 µM: [3]
inactive: [1] > 10 µM | [2] > 10 µM | [4] > 10 µM | [5] > 10 µM | [6] > 10 µM | [7] > 10 µM | [8] > 10 µM | [9] > 10 µM | [10] > 10 µM | [11] > 10 µM | [12] > 10 µM | [13] > 10 µM | [14] > 10 µM | [15] > 10 µM | [16] > 10 µM | [17] > 10 µM | [18] > 10 µM | [20] > 10 µM

CC(=O)C1(C)CC(C#N)(C#N)C(C#N)=C1N (stereo not given)
inactive: [1] 25.1 µM | [2] 66.8 µM | [4] > 100 µM | [5] > 100 µM | [6] > 100 µM | [7] > 100 µM | [9] > 100 µM | [10] > 100 µM | [11] > 100 µM | [12] > 100 µM | [13] > 100 µM | [14] > 100 µM | [15] > 100 µM | [16] > 100 µM | [17] > 100 µM | [18] > 100 µM | [19] > 100 µM | [20] > 100 µM
> 100 µM: [3]

O=C1CCCCC(=O)OC2(CCCCC2=O)CC1 (stereo not given)
inactive: [1] > 100 µM | [2] > 100 µM | [4] > 100 µM | [5] > 100 µM | [6] > 100 µM | [7] > 100 µM | [8] > 100 µM | [9] > 100 µM | [10] > 100 µM | [11] > 100 µM | [12] > 100 µM | [13] > 100 µM | [14] > 100 µM | [15] > 100 µM | [17] 5.82 µM | [18] > 100 µM | [19] > 100 µM | [20] > 100 µM
> 100 µM: [3]

OC12COc3ccccc3C1Oc1ccccc1C2 (stereo not given)
inactive: [1] > 100 µM | [2] > 100 µM | [4] > 100 µM | [5] > 100 µM | [6] > 100 µM | [7] > 100 µM | [9] > 100 µM | [10] > 100 µM | [11] > 100 µM | [12] > 100 µM | [13] > 100 µM | [14] > 100 µM | [15] > 100 µM | [17] > 100 µM | [18] > 100 µM | [19] > 100 µM | [20] > 100 µM
> 100 µM: [3]

N#C/C(N)=C(\C#N)NC(=O)C(=O)N/C(C#N)=C(\N)C#N
> 100 µM: [3]
inactive: [1] > 100 µM | [2] > 100 µM | [4] > 100 µM | [5] > 100 µM | [6] > 100 µM | [7] > 100 µM | [8] > 100 µM | [9] > 100 µM | [10] > 100 µM | [11] > 100 µM | [12] > 100 µM | [13] > 100 µM | [15] > 100 µM | [16] > 100 µM | [17] 29.3 µM | [18] > 100 µM | [19] > 100 µM | [20] > 100 µM
